# Read-outs that look alike come from different tables or passages of the source.
# How the values were obtained:
# BAW (Spodoptera exigua) = experiment: Bioassays on Beet Armyworm (BAW), 128-well diet tray assay; type: in vivo; settings: for pest or weed control at 50 µg/cm2: Spodoptera exigua, 168 h, read-out: BAW Rating
# Procedure: (§1) Bioassays on Beet Armyworm (“BAW”) and Corn Earworm (“CEW”) and Cabbage Looper (“CL”)
# (§2) Certain molecules disclosed in this document were tested against BAW and CEW and CL using procedures described in the following examples. In the reporting of the results, the “BAW & CEW & CL Rating Table” was used (See Table Section).
# Bioassays on BAW (Spodoptera exigua)
# Bioassays on BAW were conducted using a 128-well diet tray assay. one to five second instar BAW larvae were placed in each well (3 mL) of the diet tray that had been previously filled with 1 mL of artificial diet to which 50 μg/cm^2 of the test compound (dissolved in 50 μL of 90:10 acetone-water mixture) had been applied (to each of eight wells) and then allowed to dry. Trays were covered with a clear self-adhesive cover, and held at 25° C., 14:10 light-dark for five to seven days. Percent mortality was recorded for the larvae in each well; activity in the eight wells was then averaged. The results are indicated in the table entitled “Table 3: Assay Results” (See Table Section).
# CEW (Helicoverpa zea) = experiment: Bioassays on Corn Earworm (CEW), 128-well diet tray assay; type: in vivo; settings: for pest or weed control at 50 µg/cm2: Helicoverpa zea, 168 h, read-out: CEW Rating
# Procedure: as §1, §2
# Bioassays on CEW (Helicoverpa zea)
# Bioassays on CEW were conducted using a 128-well diet tray assay. one to five second instar CEW larvae were placed in each well (3 mL) of the diet tray that had been previously filled with 1 mL of artificial diet to which 50 μg/cm^2 of the test compound (dissolved in 50 μL of 90:10 acetone-water mixture) had been applied (to each of eight wells) and then allowed to dry. Trays were covered with a clear self-adhesive cover, and held at 25° C., 14:10 light-dark for five to seven days. Percent mortality was recorded for the larvae in each well; activity in the eight wells was then averaged. The results are indicated in the table entitled “Table 3: Assay Results” (See Table Section).
# [1] = percent mortality, second instar larvae, 50 μg/cm^2 on artificial diet, five to seven days, 25° C.
Structure (SMILES),pest or weed control at 50 µg/cm2 (BAW (Spodoptera exigua)),pest or weed control at 50 µg/cm2 (CEW (Helicoverpa zea); [1]),also measured
Cc1cc(/C=C/C(c2cc(Cl)cc(Cl)c2)C(F)(F)F)ccc1C(=O)NCc1ccccc1 (stereo not drawn) [AC11],50 to 100%,50 to 100%,–
Cc1cc(/C=C/C(c2cc(Cl)cc(Cl)c2)C(F)(F)F)ccc1C(=O)NCc1ccccn1 (stereo not drawn) [AC12],50 to 100%,50 to 100%,–
Cc1cc(/C=C/C(c2cc(Cl)cc(Cl)c2)C(F)(F)F)ccc1C(=O)NC(C)(C)c1ccccn1 (stereo not drawn) [AC16],50 to 100%,50 to 100%,–
Cc1cc(/C=C/C(c2cc(Cl)cc(Cl)c2)C(F)(F)F)ccc1C(=O)NCc1ccoc1 (stereo not drawn) [AC20],50 to 100%,50 to 100%,–
Cc1cc(/C=C/C(c2cc(Cl)c(Cl)c(Cl)c2)C(F)(F)F)ccc1C(=O)NCc1ccc(Cl)nc1 (stereo not drawn) [AC22],50 to 100%,50 to 100%,–
Cc1cc(/C=C/C(c2cc(Cl)cc(Cl)c2)C(F)(F)F)ccc1C(=O)NCC(=O)NCC(F)(F)F (stereo not drawn) [AC24],–,–,BAW Rating (BAW (Spodoptera exigua); [1]): A (50-100); CEW Rating (CEW (Helicoverpa zea); [1]): A (50-100)
O=C(NC1CS(=O)(=O)C1)c1ccc(/C=C/C(c2cc(Cl)c(Cl)c(Cl)c2)C(F)(F)F)cc1C(F)(F)F (stereo not drawn) [AC35],50 to 100%,50 to 100%,–
Cc1cc(/C=C/C(c2cc(Cl)c(F)c(Cl)c2)C(F)(F)F)ccc1C(=O)NCc1ccc(Cl)nc1 (stereo not drawn) [AC38],50 to 100%,50 to 100%,–
"Cc1cc(/C=C/C(c2cc(Cl)cc(Cl)c2)C(F)(F)F)ccc1C(=O)NCc1cncnc1 (stereo not drawn) [AC39, 4-((E)-3-(3,5-Dichlorophenyl)-4,4,4-trifluorobut-1-enyl)-2-methyl-N-((pyrimidin-5-yl)methyl)benzamide]",50 to 100%,50 to 100%,–
Cc1cc(/C=C/C(c2cc(Cl)cc(Cl)c2)C(F)(F)F)ccc1C(=O)NCC(=O)NC1CC1 (stereo not drawn) [AC40],50 to 100%,50 to 100%,–
Cc1cc(/C=C/C(c2cc(Cl)cc(Cl)c2)C(F)(F)F)ccc1C(=O)NCC(=O)NC1CSC1 (stereo not drawn) [AC41],50 to 100%,–,–
Cc1cc(/C=C/C(c2cc(Cl)cc(Cl)c2)C(F)(F)F)ccc1C(=O)NCc1nc2ccccc2s1 (stereo not drawn) [AC42],50 to 100%,–,–
Cc1cc(/C=C/C(c2cc(Cl)cc(Cl)c2)C(F)(F)F)ccc1C(=O)NN(C)c1ccccc1F (stereo not drawn) [AC45],50 to 100%,50 to 100%,–
O=C(NCc1ccc(Cl)cn1)c1ccc(/C=C/C(c2cc(Cl)cc(Cl)c2)C(F)(F)F)cc1Br (stereo not drawn) [AC46],50 to 100%,50 to 100%,–
O=C(CNC(=O)c1ccc(/C=C/C(c2cc(Cl)cc(Cl)c2)C(F)(F)F)cc1F)NCC(F)(F)F (stereo not drawn) [AC62],50 to 100%,50 to 100%,–
O=C(CNC(=O)c1ccc(/C=C/C(c2cc(Cl)c(F)c(Cl)c2)C(F)(F)F)cc1F)NCC(F)(F)F (stereo not drawn) [AC68],50 to 100%,50 to 100%,–
Cc1cc(/C=C/C(c2cc(Cl)cc(Cl)c2)C(F)(F)F)ccc1C(=O)NCC(=O)NC1CS(=O)(=O)C1 (stereo not drawn) [AC81],50 to 100%,–,–
O=C(NC1CS(=O)(=O)C1)c1ccc(/C=C/C(c2cc(Cl)c(F)c(Cl)c2)C(F)(F)F)cc1F (stereo not drawn) [AC84],50 to 100%,50 to 100%,–
CCc1cc(/C=C/C(c2cc(Cl)c(F)c(Cl)c2)C(F)(F)F)ccc1C(=O)NC1CS(=O)(=O)C1 (stereo not drawn) [AC86],50 to 100%,50 to 100%,–
"FC(F)(F)CNC(=S)CNC(=S)c1ccc(/C=C/C(c2cc(Cl)c(Cl)c(Cl)c2)C(F)(F)F)cc1Br (stereo not drawn) [AC90, (E)-2-Bromo-N-(2-thioxo-2-((2,2,2-trifluoroethyl)amino)ethyl)-4-(4,4,4-trifluoro-3-(3,4,5-trichlorophenyl)but-1-en-1-yl)benzothioamide]",50 to 100%,50 to 100%,–
"O=C(CNC(=S)c1ccc(/C=C/C(c2cc(Cl)c(Cl)c(Cl)c2)C(F)(F)F)cc1Br)NCC(F)(F)F (stereo not drawn) [AC91, (E)-2-(2-Bromo-4-(4,4,4-trifluoro-3-(3,4,5-trichlorophenyl)but-1-en-1-yl)phenylthioamido)-N-(2,2,2-trifluoroethyl)acetamide]",50 to 100%,50 to 100%,–
"O=C(NCC(=S)NCC(F)(F)F)c1ccc(/C=C/C(c2cc(Cl)c(Cl)c(Cl)c2)C(F)(F)F)cc1Br (stereo not drawn) [AC92, (E)-2-Bromo-N-(2-thioxo-2-((2,2,2-trifluoroethyl)amino)ethyl)-4-(4,4,4-trifluoro-3-(3,4,5-trichlorophenyl)but-1-en-1-yl)benzamide]",50 to 100%,50 to 100%,–

Structure (SMILES),pest or weed control at 50 µg/cm2 (BAW (Spodoptera exigua)),pest or weed control at 50 µg/cm2 (CEW (Helicoverpa zea); [1]),also measured
Cc1cc(/C=C\C(c2cc(Cl)cc(Cl)c2)C(F)(F)F)ccc1C(=O)NCC(=O)NC1CC1 (stereo not drawn) [AC93],50 to 100%,–,–
"O=C(CNC(=O)c1ccc(/C=C\C(c2cc(Cl)c(Cl)c(Cl)c2)C(F)(F)F)cc1Br)NCC(F)(F)F (stereo not drawn) [AC95, (Z)-2-Bromo-N-(2-oxo-2-((2,2,2-trifluoroethyl)amino)ethyl)-4-(4,4,4-trifluoro-3-(3,4,5-trichlorophenyl)but-1-en-1-yl)benzamide]",50 to 100%,50 to 100%,–
O=C(CNC(=O)c1ccc(/C=C/C(c2cc(Cl)c(F)c(Cl)c2)C(F)(F)F)cc1[N+](=O)[O-])NCC(F)(F)F (stereo not drawn) [AC98],50 to 100%,50 to 100%,–
O=C(CNC(=O)c1ccc(/C=C/C(c2ccc(F)c(Cl)c2)C(F)(F)F)cc1Br)NCC(F)(F)F (stereo not drawn) [AC99],50 to 100%,50 to 100%,–
O=C(CNC(=O)c1ccc(/C=C/C(c2cc(F)c(Cl)c(F)c2)C(F)(F)F)cc1Br)NCC(F)(F)F (stereo not drawn) [AC102],–,50 to 100%,–
"O=C(NC1CCN(C2COC2)CC1)c1ccc(/C=C/C(c2cc(Cl)c(Cl)c(Cl)c2)C(F)(F)F)cc1Br (stereo not drawn) [AC108, (E)-2-Bromo-N-(1-(oxetan-3-yl)piperidin-4-yl)-4-(4,4,4-trifluoro-3-(3,4,5-trichlorophenyl)but-1-en-1-yl)benzamide]",0 to 50%,–,–
Cc1cc(/C=C/C(c2cc(Cl)cc(Cl)c2)C(F)(F)F)ccc1C(=O)NCC1CCCO1 (stereo not drawn) [AC118],50 to 100%,–,–
"O=C(Cn1ncc2cc(/C=C/C(c3cc(Cl)c(F)c(Cl)c3)C(F)(F)F)ccc2c1=O)NCC(F)(F)F (stereo not drawn) [BC14, (E)-2-(6-(3-(3,5-Dichloro-4-fluorophenyl)-4,4,4-trifluorobut-1-en-1-yl)-1-oxophthalazin-2(1H)-yl)-N-(2,2,2-trifluoroethyl)acetamide]",50 to 100%,–,–
O=C(Cc1ccc(Cl)nc1)NCc1ccc(/C=C/C(c2cc(Cl)c(Cl)c(Cl)c2)C(F)(F)F)cc1Cl (stereo not drawn) [CC14],50 to 100%,–,–
"CCNC(=O)NCc1ccc(/C=C/C(c2cc(Cl)cc(Cl)c2)C(F)(F)F)cc1Cl (stereo not drawn) [CC31, (E)-1-(2-Chloro-4-(3-(3,5-dichlorophenyl)-4,4,4-trifluorobut-1-en-1-yl)benzyl)-3-ethylurea]",0 to 50%,–,–
O=C(NCc1ccc(/C=C/C(c2cc(Cl)c(Cl)c(Cl)c2)C(F)(F)F)cc1Cl)Oc1ccccc1Cl (stereo not drawn) [CC40],–,–,pest or weed control at 50 µg/cm2 (CEW (Helicoverpa zea)): 50 to 100%
"O=C(CC(F)(F)F)NCc1ccc(/C=C/C(c2cc(Cl)c(Cl)c(Cl)c2)C(F)(F)F)c2ccccc12 (stereo not drawn) [CC46, (E)-3,3,3-Trifluoro-N-((4-(4,4,4-trifluoro-3-(3,4,5-trichlorophenyl)but-1-en-1-yl)naphthalen-1-yl)methyl)propanamide]",–,50 to 100%,–
"O=C(NOc1ccc(/C=C/C(c2cc(Cl)c(Cl)c(Cl)c2)C(F)(F)F)cc1)C1CC1 (stereo not drawn) [CC52, (E)-N-(4-(4,4,4-Trifluoro-3-(3,4,5-trichlorophenyl)but-1-en-1-yl)phenoxy)cyclopropanecarboxamide]",50 to 100%,–,–
FC(F)(F)C(/C=C/c1ccc(-n2cncn2)cc1)c1ccccc1 (stereo not drawn) [DC3],0 to 50%,–,–
FC(F)(F)C(/C=C/c1ccc(-n2cncn2)cc1)c1ccc(Cl)cc1 (stereo not drawn) [DC4],50 to 100%,–,–
Fc1ccc(C(/C=C/c2ccc(-n3cncn3)cc2)C(F)(F)F)cc1 (stereo not drawn) [DC7],50 to 100%,–,–
Fc1cc(F)cc(C(/C=C/c2ccc(-n3cncn3)cc2)C(F)(F)F)c1 (stereo not drawn) [DC8],50 to 100%,–,–
Cc1cc(C)cc(C(/C=C/c2ccc(-n3cncn3)cc2)C(F)(F)F)c1 (stereo not drawn) [DC11],50 to 100%,–,–
COc1c(Cl)cc(C(/C=C/c2ccc(-n3cncn3)cc2)C(F)(F)F)cc1Cl (stereo not drawn) [DC20],50 to 100%,–,–
Cc1ncnn1-c1ccc(/C=C/C(c2cc(Cl)cc(Cl)c2)C(F)(F)F)cc1 (stereo not drawn) [DC23],–,50 to 100%,–
OCc1cc(/C=C/C(c2cc(Cl)cc(Cl)c2)C(F)(F)F)ccc1-n1cncn1 (stereo not drawn) [DC53],–,50 to 100%,–
Cc1cc(-n2cncn2)ccc1/C=C/C(c1cc(Cl)cc(Cl)c1)C(F)(F)F (stereo not drawn) [DC65],–,50 to 100%,–

# From patent US9210927B2, “Pesticidal compositions and processes related thereto” (Dow AgroSciences LLC, priority 2013, dated 2015)
